The values below come from patent US8883841B2, “Oncogenic ras-specific cytotoxic compound and methods of use thereof” (The Board of Regents of the University of Texas System, priority 2005, dated 2014).

“Also recorded” adds a separate entry of the source.

Holding throughout (format): cell-based, human
The subject of assay [1] is caspase-3 and caspase-8. Briefly: Western blot for cleavage/activation of caspase-3 and caspase-8 in H460 cells. Particulars: 1 μM, 6 to 24 h, listed as Oncrasin-1. The method, then:
Apoptosis induction in H460 cells was also analyzed. H460 cells were treated with 1 μM of Oncrasin-1 for 6 to 24 h. Cells treated with DMSO were used as controls. The cell lysates were then used for a western blot assay to detect the cleavage of caspase-3 and caspase-8. […] After treatment with Oncrasin-1, the expression of some molecules involved in Ras signaling pathways was also evaluated. […] Active Raf-1 can be translocated to mitochondria where it executes antiapoptosis signaling by interaction with Bad or other protein substrates. Raf-1 is also a pivotal regulator of endothelial cell survival during angiogenesis. Ablation of Raf-1 renders cells hypersensitive to apoptosis despite normal regulation of extracellular signal-regulated kinases. Thus, it is possible to induce antitumor activity by suppressing raf-1.
Induction of apoptosis by Oncrasin. Many antitumor therapies act by inducing apoptosis in tumor cells (Fisher, 1994; Thompson, 1995). To determine whether the antitumor activity of Oncrasin-1 is due to the suppression of cell proliferation or to cell killing, T29, T29Kt1, and H460 cells were stained with annexin V/propidium iodide (PI) after treatment with Oncrasin-1 at 30 μM (for T29 or T29Kt1 cells) or 3 μM (for H460 cells). […]
In general terms: In western blotting, separated proteins are transferred to a membrane and probed.

Assay [2] deals with H460 cells. Briefly: K-Ras siRNA knockdown, Oncrasin-induced apoptosis by FACS in H460 cells. The settings on record: 1 μM, 12 h, compared with DMSO. The method, then: K-Ras knockdown inhibited Oncrasin-induced apoptosis. To further study the role of K-Ras gene in Oncrasin-induced cell death, H460 cells were treated with […] of K-Ras specific siRNA or a control siRNA for 24 h. The cells were then treated with DMSO or 1 μM Oncrasin-1. After another 12 h, the cells were harvested for apoptosis detection by fluorescence-activated cytometric assay. The cell lysate was also used to detect K-Ras gene expression.
In general terms: A flow cytometer gives signals particle by particle.

In assay [3] the test system is Bax, Bik, Bcl-2, Bcl-XL, Mst1, B-Raf, PKCzeta and PKCiota. Put plainly: Western blot analysis of apoptosis/Ras signaling proteins. Particulars: T29, T29Kt1 and H460 cells, 12 h. The method, then: Ras Signaling Pathway and Molecular Mechanisms of Oncrasin-induced apoptosis. To investigate molecular mechanisms of apoptosis induction by Oncrasin compounds, levels several proteins that are involved in apoptosis and/or involved in Ras signaling pathways were determined, including Bax, Bik, Bc12, Bcl-XL, Raf-1, B-Raf, Akt, Mst1 and atypical protein kinase C (aPKC) zeta and PKCiota. To study which molecules are affected by Oncrasin treatment, T29, T29Kt1 and H460 cells were treated with Oncrasin-1 at an optimal concentration, around IC60 to IC80 for T29Kt1 and H460 cells. Cell lysates were collected 12 h after the treatment and subjected to Western blot analysis.

The subject of assay [4] is ASF/SF2. Briefly: Antibody staining, subcellular localization of ASF/SF2. The text has this: Effects on RNA spliceosome. To investigate the nature of this PKCiota aggregates in the nucleus, the effect of Oncrasin-1 on SC35, a protein required for RNA splicing and assembly of spliceosome (Fu et al., 1992; Vellard et al., 1992), and on Rad51, a homologous DNA recombinase that involves in DNA repair (Benson et al., 1994; Baumann et al., 1996) were studied. […] and DNA repairing are the two important functions executed in the nucleus. In untreated or DMSO-treated cells, SC35 was localized in nucleus as speckles, either diffusely distributed or concentrated as granule clusters (Mistele et al., 1997), whereas Rad51 was more uniformly distributed inside the nucleus. […] This aggregation of SC35 was not observed in Oncrasin resistant T29 cells upon the treatment with Oncrasin-1. […] The effects of Oncrasin on another spliceosome protein, alternative splicing factor/splicing factor 2 (ASF/SF2), was studied (Krainer et al., 1991). […] In the resistant T29 cells, however, such an aggregation is not observed (FIG. 8C).

Assay [5] relates to PKCiota knockdown T29Kt1 cells. Put plainly: Cell viability in stable PKCiota knockdown T29Kt1 cells. The method, then:
Knockdown of PKCiota suppressed Oncrasin-mediated apoptosis and cytotoxicity. To investigate possible role of PCKiota in Oncrasin-1 mediated cytotoxicity, PKCiota was knocked down in H460 cells by using oligo ribonucleotides. H460 cells were treated with 200 pM PKCiota siRNA for 24 h, and then with DMSO or 1 μM Oncrasin for another 12 h. After that, cells harvested for analysis of apoptosis by fluorescence-activated cell sorting (FACS) and for expression of PKCiota by Western blot analysis. […] To further study the effect of atypical PKC in Oncrasin-induced cytotoxicity, the inventors obtained plasmids encoding PKCiota and PKCzeta siRNA from Origene Corporation and made stable PKCiota and PKCzeta knockdown T29Kt1 cells. […] The IC50 in PKCiota knockdown T29Kt1 cells were 100 fold higher than parental T29K cells. […] Thus, compounds with synthetic lethality for PKCiota might be useful for treatment of those cancers.

Consider `O=Cc1cn(Cc2ccc(Cl)cc2)c2ccccc12` [Oncrasin K001, 1H-Indole-3-carboxaldehyde, 1-[(4-chlorophenyl)methyl]-(9CI)], for which the “activation of caspase-3 and caspase-8” value in assay [1] was “effectively activated caspase-3 and caspase-8; also recorded: Activation of caspase-3 and caspase-8 was detected; also recorded: effectively induce caspase-3 and caspase-8 activation”. Further, in assay [2], the “apoptotic cells, control siRNA treated H460” value is reported as “dramatic increase of apoptotic cells”. In addition, the “levels of Bax, Bik, Bcl-2, Bcl-XL, Mst1, B-Raf, PKCzeta and PKCiota” value in assay [3] is on record as “did not result in noticeable changes”. The “ASF/SF2 localization, T29Kt1 cells” value in assay [4] was “induced ASF/SF2 aggregation inside nucleus”. Moreover, the “ASF/SF2 aggregation, T29 cells” value in assay [4] (resistant cells) is on record as “not observed”. For the same compound, the “susceptibility of stable PKCiota knockdown T29Kt1 cells” value in assay [5] (cell viability analysis) is “almost complete resistance”. Besides, the “IC50 in PKCiota knockdown T29Kt1 cells relative to parental T29K cells” value in assay [5] (stable knockdown) is 100 fold.
